Experimental findings from patent US8802695B2, “Apoptosis signal-regulating kinase 1 inhibitors” (Takeda Pharmaceutical Company Limited, priority 2010, dated 2014) are described below.

The target in experiment [1] is T1, ASK1 (Homo sapiens (Human), UniProt Q99683). Description: Scintillation assay for inhibitory effect against ASK1 (Example B; myelin basic protein substrate, [γ-32P]ATP). The experiment is classed as biochemical. Conditions: 2.5 μM ATP solution, read-out: Enzyme Activity B IC50. The text has this: (§1) The inhibitory effect of the compound of the invention on ASK1 may be evaluated by evaluating the phosphorylating activity of the enzyme on a known substrate with or without the presence of the test compound. Example B provides such an assay where myelin basic protein (Wako) is used as substrate and detection is by scintillation counting. It should be understood other substrates and detection mechanism may be used. A commercially available a kit, Cisbio's HTRF® KinEASE™ STK kit, has shown to be useful for evaluating ASK1 activity. The assay uses an anti-phosphoseric specific, Eu^3+-Cryptate labeled antibody to mark the phosphorylated product of ASK1 on a biotinylated kinase substrate, and detection is by time resolved fluorescence using XL665 labeled streptavidin. The fluorescence intensity is proportional to the amount of product formation. Example C provides the assay protocol.
Cloning of cDNA encoding human ASK1 was conducted by PCR using primers, 5′-[…] […]-3′ (SEQ ID NO: 1) and 5′-AAAGCGGCCGCTCAA […]-3′ (SEQ ID NO: 2), from human heart cDNA library (Becton, Dickinson and Company). The PCR product was subjected to agarose gel (1%) electrophoresis, a 2.2 kb DNA fragment containing an ASK1 gene was recovered from the gel, and then digested with restriction enzymes, NotI and SalI, and inserted into a plasmid pFASTBAC1 (Invitrogen) to prepare a plasmid pFB-ASK1. The insert was verified by sequencing. Recombinant baculovirus was prepared according to the procedure of the Bac-to-Bac baculovirus expression system (Invitrogen).
Sf-21 cells were seeded to achieve 1×10^6 cells/mL in 100 mL of Sf-900 II SFM medium (Invitrogen) which contains 10% fetal calf serum and then cultured at 27° C. for 24 hrs. To express ASK1 in cells, 0.15 mL of the recombinant baculovirus virus stock was added to cells, and the then cultured for 60 hrs. The cells were separated from the culture solution by centrifugation at 3000 rpm for 10 min and washed once with PBS. The cells were suspended in 10 mL of lysis buffer (25 mM HEPES (pH 7.5), 1% Triton X, 130 mM NaCl, 1 mM EDTA, 1 mM DTT, 25 mM (3-glycerophosphate, Protease inhibitor complete (Roche), 1 mM sodium orthovanadate) and ruptured by four times of treatment with a homogenizer (POLYTRON) at 20000 rpm for 30 seconds. Active ASK1 protein was purified from a supernatant obtained by centrifugal separation at 40000 rpm for 45 min using anti-FLAG M2 Affinity Gel (Sigma).
Scintillation Assay for Measuring the Inhibitory Effect of Exemplified Compounds of the Invention Against ASK1
The test compounds (2.5 μL) dissolved in DMSO were added to wells containing 37.5 μL of the reaction solution (25 mM HEPES (pH 7.5), 10 mM magnesium acetate, 1 mM DTT) including 30 ng of active ASK1 protein and 1 μg of myelin basic protein (Wako), and incubated at room temperature for 5 min. To start the reaction, 10 μL of ATP solution (2.5 μM ATP, 0.1 μCi [γ-^32P]ATP) was added to wells. After incubating at room temperature for 30 min, the reaction was terminated by adding 50 μL of 20% TCA solution. The reaction solution was incubated at 4° C. for 30 min and an acid-insoluble fraction was transferred onto a GF/C filter (Packard) with Cell Harvester (Packard), and washed with 250 mM phosphoric acid. After drying at 45° C. for 60 min., 40 μL of Microscint 0 (Packard) was added and the radioactivity was measured with TopCount (Packard). The concentrations (IC50 value) of the test compounds necessary for 50% inhibition of kinase activity were calculated by PRISM 3.0 (Graphpad Software).
Target sequence in this assay (Q99683 650-1374): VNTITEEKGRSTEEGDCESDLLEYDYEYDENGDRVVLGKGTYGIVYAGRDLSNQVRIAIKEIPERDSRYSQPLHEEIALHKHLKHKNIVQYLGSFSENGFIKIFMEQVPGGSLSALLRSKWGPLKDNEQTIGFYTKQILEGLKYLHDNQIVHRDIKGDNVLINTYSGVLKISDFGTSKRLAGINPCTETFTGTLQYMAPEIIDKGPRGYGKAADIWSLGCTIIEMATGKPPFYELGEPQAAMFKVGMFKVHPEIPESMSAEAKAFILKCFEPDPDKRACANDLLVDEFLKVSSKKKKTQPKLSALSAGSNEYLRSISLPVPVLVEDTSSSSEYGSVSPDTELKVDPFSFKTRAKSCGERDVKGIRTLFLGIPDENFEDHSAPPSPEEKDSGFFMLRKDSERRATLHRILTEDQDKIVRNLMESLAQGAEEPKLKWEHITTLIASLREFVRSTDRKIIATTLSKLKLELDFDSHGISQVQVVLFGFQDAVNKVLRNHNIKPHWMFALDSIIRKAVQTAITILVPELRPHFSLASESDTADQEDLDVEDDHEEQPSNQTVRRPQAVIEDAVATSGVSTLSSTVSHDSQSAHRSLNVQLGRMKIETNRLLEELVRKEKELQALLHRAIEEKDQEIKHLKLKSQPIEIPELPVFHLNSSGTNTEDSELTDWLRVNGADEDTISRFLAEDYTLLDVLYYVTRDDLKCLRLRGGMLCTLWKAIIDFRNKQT

Experiment [2] addresses T1, ASK1. Description: Homogeneous Time-Resolved Fluorescence (HTRF) assay for inhibitory effect against ASK1 (Example C; KinEASE STK S3 kit). Particulars: 25 nM ASK1, 100 μM ATP, read-out: Enzyme Activity C IC50. The class given is biochemical.
Excerpt: as §1
Target sequence in this assay (Q99683 649-946): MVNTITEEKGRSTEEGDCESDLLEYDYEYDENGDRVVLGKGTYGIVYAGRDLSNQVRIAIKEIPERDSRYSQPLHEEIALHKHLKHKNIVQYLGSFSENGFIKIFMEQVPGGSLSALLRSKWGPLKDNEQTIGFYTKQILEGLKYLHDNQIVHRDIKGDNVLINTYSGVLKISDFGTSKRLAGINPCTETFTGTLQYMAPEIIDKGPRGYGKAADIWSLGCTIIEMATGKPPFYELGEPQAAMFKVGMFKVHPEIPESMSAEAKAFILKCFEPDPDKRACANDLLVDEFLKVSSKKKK
Homogeneous Time-Resolved Fluorescence (HTRF) Assay for Measuring the Inhibitory Effect of Exemplified Compounds of the Invention Against ASK1
Recombinant human ASK1 is purchased from Millipore (Cat #14-606). The enzymatic assay of ASK1 is set up by using HTRF® KinEASE™ STK S3 kit, the Universal Assay for Serine/Threonine Kinases kit from CisBio.
The inhibitory properties of compounds to ASK1 may be determined using a white 384-well-plate format under the following reaction conditions: 25 nM ASK1, 1 μM CisBio STK S3-biotion peptide, 100 μM ATP, and 1%-2% DMSO in kinase assay buffer of 50 mM HEPES, pH 7.3, 10 mM NaCl, 10 mM MgCl2, 0.01% Brij35, 0.2 mM EDTA, and 1 mM DTT. Reaction product is determined quantitatively by HTRF after the addition of detection reagent SA-XL665 and STK-antibody-cryptate.
The assay reaction may be initiated as follows: 2 μl of the mixture of 3 μM CisBio STK S3-biotion peptide and 300 μM ATP with 2 μl of test compound (2 fold serial dilutions for 11 data points for each inhibitor) containing 3%-6% DMSO are added to each well of the plate, followed by the addition of 2 μL of 75 nM ASK1 to initiate the reaction (final enzyme concentration was 25 nM for ASK1). The reaction mixture may then be incubated at room temperature for 1 hour, and quenched and developed by the addition of 6 μL of 100-fold diluted STK-antibody-Cryptate and 250 nM SA-XL665 in Cisbio HTRF detection buffer (50 mM HEPES, pH7.0, 0.1% BSA, 0.8 M KF, and 20 mM EDTA). The fluorescence intensity is measured at 620 nm (Cryptate) and 665 nm (XL665) after a 1-2 hour incubation at room temperature. A ratio is calculated (665/620) for each well and is fitted to the standard IC50 curve to determine inhibition constants (IC50).

For `CC(C)(O)c1ccc(C(=O)Nc2cc3c(ccn3CC3CC3)cn2)cc1` [Compound 9, N-(1-(cyclopropylmethyl)-1H-pyrrolo[3,2-c]pyridin-6-yl)-4-(2-hydroxypropan-2-yl)benzamide], the IC50 at ASK1 [1] was found to be 81 nM; at ASK1 [2] it was 237 nM.
In the case of `CC(C)(O)c1ccc(C(=O)Nc2cc3c(cn2)c(Br)cn3CC2CC2)cc1` [Compound 10, N-(3-bromo-1-(cyclopropylmethyl)-1H-pyrrolo[3,2-c]pyridin-6-yl)-4-(2-hydroxypropan-2-yl)benzamide], the values for the IC50 on ASK1 [1] and on ASK1 [2] were 3 nM and 62 nM, respectively.
On the same counts, the results for `CCn1cc(Br)c2cnc(NC(=O)c3ccc(C(C)(C)O)cc3)cc21` [Compound 11, N-(3-bromo-1-ethyl-1H-pyrrolo[3,2-c]pyridin-6-yl)-4-(2-hydroxypropan-2-yl)benzamide] are 3 nM and 8 nM.
On the same counts, the results for `CCn1cc(C)c2cnc(NC(=O)c3ccc(C(C)(C)O)cc3)cc21` [Compound 12, N-(1-ethyl-3-methyl-1H-pyrrolo[3,2-c]pyridin-6-yl)-4-(2-hydroxypropan-2-yl)benzamide] are 7 nM and 20 nM.
Regarding `CCn1ccc2cnc(NC(=O)c3ccc([C@@](C)(O)CO)cc3)cc21` [Compound 13, (R)-4-(1,2-dihydroxypropan-2-yl)-N-(1-ethyl-1H-pyrrolo[3,2-c]pyridin-6-yl)benzamide], the IC50 at ASK1 [1] amounted to 55 nM; on ASK1 [2] it was 64 nM.
On the same counts, the results for `Cn1cc(Br)c2cnc(NC(=O)c3ccc(C(C)(C)O)cc3)cc21` [Compound 15, N-(3-bromo-1-methyl-1H-pyrrolo[3,2-c]pyridin-6-yl)-4-(2-hydroxypropan-2-yl)benzamide] are 5 nM and 10 nM.
On the same counts, the results for `Cn1cc(Br)c2cnc(NC(=O)c3ccc([C@@](C)(O)CO)cc3)cc21` [Compound 16, (R)—N-(3-bromo-1-methyl-1H-pyrrolo[3,2-c]pyridin-6-yl)-4-(1,2-dihydroxypropan-2-yl)benzamide] are 7 nM and 20 nM.
The corresponding values for `C[C@](O)(CO)c1ccc(C(=O)Nc2cc3c(ccn3C3CC3)cn2)cc1` [Compound 17, (R)—N-(1-cyclopropyl-1H-pyrrolo[3,2-c]pyridin-6-yl)-4-(1,2-dihydroxypropan-2-yl)benzamide] are 69 nM and 214 nM.
Consider `CCn1cc(C)c2cnc(NC(=O)c3ccc([C@@](C)(O)CO)cc3)cc21` [Compound 18, (R)-4-(1,2-dihydroxypropan-2-yl)-N-(1-ethyl-3-methyl-1H-pyrrolo[3,2-c]pyridin-6-yl)benzamide], for which the IC50 turned out to be 14 nM on ASK1 [1] and 17 nM at ASK1 [2].
On the same counts, the results for `Cc1cn(C)c2cc(NC(=O)c3ccc(C(C)(C)O)cc3)ncc12` [Compound 19, N-(1,3-dimethyl-1H-pyrrolo[3,2-c]pyridin-6-yl)-4-(2-hydroxypropan-2-yl)benzamide] are 19 nM and 29 nM.
The corresponding values for `CCn1cc(Br)c2cnc(NC(=O)c3ccc([C@@](C)(O)CO)cc3)cc21` [Compound 20, (R)—N-(3-bromo-1-ethyl-1H-pyrrolo[3,2-c]pyridin-6-yl)-4-(1,2-dihydroxypropan-2-yl)benzamide] are 2 nM and 10 nM.
For `CC(C)(O)c1ccc(C(=O)Nc2cc3c(ccn3CS(C)(=O)=O)cn2)cc1` [Compound 21, 4-(2-hydroxypropan-2-yl)-N-(1-(methylsulfonylmethyl)-1H-pyrrolo[3,2-c]pyridin-6-yl)benzamide], the IC50 on ASK1 [2] amounted to 12400 nM.
With `C[C@](O)(CO)c1ccc(C(=O)Nc2cc3c(cn2)c(Br)cn3C2CC2)cc1` [Compound 22, (R)—N-(3-bromo-1-cyclopropyl-1H-pyrrolo[3,2-c]pyridin-6-yl)-4-(1,2-dihydroxypropan-2-yl)benzamide], the IC50 at ASK1 [1] stood at 2 nM; at ASK1 [2], 7 nM.
The corresponding values for `C[C@](O)(CO)c1ccc(C(=O)Nc2cc3c(cn2)c(Cl)cn3C2CC2)cc1` [Compound 23, (R)—N-(3-chloro-1-cyclopropyl-1H-pyrrolo[3,2-c]pyridin-6-yl)-4-(1,2-dihydroxypropan-2-yl)benzamide] are 4 nM and 6 nM.
On the same counts, the results for `Cn1cc(Cl)c2cnc(NC(=O)c3ccc(C(C)(C)O)cc3)cc21` [Compound 24, N-(3-chloro-1-methyl-1H-pyrrolo[3,2-c]pyridin-6-yl)-4-(2-hydroxypropan-2-yl)benzamide] are 11 nM and 18 nM.
The corresponding values for `Cn1c(Cl)c(Cl)c2cnc(NC(=O)c3ccc(C(C)(C)O)cc3)cc21` [Compound 25, N-(2,3-dichloro-1-methyl-1H-pyrrolo[3,2-c]pyridin-6-yl)-4-(2-hydroxypropan-2-yl)benzamide] are 60 nM and 146 nM.
In the case of `CCn1ccc2cnc(NC(=O)c3ccc([C@@](C)(O)CO)c(C)c3)cc21` [Compound 27, (R)-4-(1,2-dihydroxypropan-2-yl)-N-(1-ethyl-1H-pyrrolo[3,2-c]pyridin-6-yl)-3-methylbenzamide], the IC50 on ASK1 [2] stood at 528 nM.
The same measure, in the same setting: with `CC(C)(CO)c1ccc(C(=O)Nc2cc3c(cn2)c(Cl)cn3C2CC2)cc1` [Compound 28, N-(3-chloro-1-cyclopropyl-1H-pyrrolo[3,2-c]pyridin-6-yl)-4-(1-hydroxy-2-methylpropan-2-yl)benzamide] the figure was 16 nM.
The same measure, in the same setting: with `Cn1c(Cl)c(Cl)c2cnc(NC(=O)c3ccc([C@@](C)(O)CO)cc3)cc21` [Compound 32, (R)—N-(2,3-dichloro-1-methyl-1H-pyrrolo[3,2-c]pyridin-6-yl)-4-(1,2-dihydroxypropan-2-yl)benzamide] the figure was 122 nM; with `CCn1cc(Cl)c2cnc(NC(=O)c3ccc([C@@](C)(O)CO)c(C)c3)cc21` [Compound 33, (R)—N-(3-chloro-1-ethyl-1H-pyrrolo[3,2-c]pyridin-6-yl)-4-(1,2-dihydroxypropan-2-yl)-3-methylbenzamide], 41 nM.
